Reference: patent publication US20100292205A1, “Pyrimidone Compounds As GSK-3 Inhibitors” (PFIZER INC., priority 2006, published 2010)

What follows are molecules tested against T1, Recombinant human GSK3β (Homo sapiens, UniProt P49841) (assay: GSK-3β (Glycogen Synthase Kinase) cell free enzyme assay). Settings: 1 μM; Examples 236-262.
T1 construct: His-tag; made in house; host or cells: Sf9 insect cells / baculovirus
T1 sequence (P49841 whole entry): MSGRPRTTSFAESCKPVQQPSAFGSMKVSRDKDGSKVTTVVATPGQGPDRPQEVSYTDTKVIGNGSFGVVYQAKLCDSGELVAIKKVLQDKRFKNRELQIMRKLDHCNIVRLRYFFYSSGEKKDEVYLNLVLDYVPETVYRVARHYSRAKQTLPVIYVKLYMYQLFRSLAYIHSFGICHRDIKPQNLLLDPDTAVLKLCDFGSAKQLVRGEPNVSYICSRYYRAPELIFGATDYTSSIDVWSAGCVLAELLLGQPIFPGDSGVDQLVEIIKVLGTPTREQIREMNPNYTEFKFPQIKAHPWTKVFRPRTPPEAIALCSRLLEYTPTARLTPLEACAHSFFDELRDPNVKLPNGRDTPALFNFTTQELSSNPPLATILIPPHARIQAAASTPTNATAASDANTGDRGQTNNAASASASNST
Assay type: biochemical
Method: Assay Protocol for GSK-3β (Glycogen Synthase Kinase) in a Cell Free Enzyme Assay
Recombinant human GSK3β was expressed in SF9/Baculo virus cells. His-tag protein was purified by affinity chromatography to a Ni-NTA Superflow column. Enzyme activity was assayed as the incorporation of [33P] from the gamma phosphate of [33P]ATP (PerkinElmer) into biotinylated peptide substrate bio-LC-S-R-H-S-S-P-H-Q-pS-E-D-E-E-E-OH (Anaspec). Reactions were carried out in a buffer containing 8 mM MOPS (pH 7.0), 10 mM Magnesium Acetate, 0.2 mM EDTA, 1 mM DTT and 2 uM cold ATP. The 33P-ATP was added for 0.025 uCi/well (120 uL) and the final concentration of substrate was 1.0 uM. Enzyme was preincubated with test agent for 30 minutes at room temperature followed by initiation of the reaction by the addition of substrate mix. Incubations were carried out at RT for 60 min. Reactions were stopped by addition of 0.66 volume of buffer containing: 12.5 mM EDTA, 0.25% Triton-X 100, 125 uM ATP, and 6.2 mg/ml streptavidin coated SPA beads (Amersham) in PBS without Ca or Mg. Radioactivity associated with the beads was quantified by scintillation counting of CPM in a Trilux counter (PerkinElmer).
Examples 42 to 60 were prepared using the analogous procedure described to prepare Example 41, substituting the appropriate starting material (Examples 1 to 35) and coupling with the appropriate acid. The assay protocol used is the percent inhibition at 1 μM for GSK-3β in the cell free enzyme assay described above.
For “2-[(1R,5S)-3-Benzyl- 38- diazabicyclo[3.2.1]oct- 8-yl]-3-methyl-6- pyridin-4-ylpyrimidin- 4(3H)-one [Example 250]”, the “Percent inhibition at 1 μM” value was 69%.

Same assay, conditions: 1 μM; GSK-3β cell free enzyme assay; Examples 42-60
For “2-{[(3a,S5,S7,aR)-1- Acetyl-3a- methyloctahydro-1H- indol-5- yl](methyl)amino}-3- methyl-6-pyridin-4- ylpyrimidin-4(3H)-one [Example 50]”, the “Percent inhibition at 1 μM” value was 82%.

Same assay, conditions: cell free enzyme assay; Examples 1-35
`Cn1c(N2CC[C@@](O)(c3ccccc3)[C@H]3CCCC[C@H]32)nc(-c2ccncc2)cc1=O` [Example 1, 2-[(4S,4aS,8aR)-4-Hydroxy-4-phenyloctahydro-quinolin-1(2H)-yl]-3-methyl-6-pyridin-4-ylpyrimidin-4(3H)-one] gave an IC50 of 0.7 nM. `Cn1c(N[C@H]2[C@@H]3CN(C(=O)OC(C)(C)C)C[C@@H]32)nc(-c2ccncc2)cc1=O` [Example 2, tert-butyl (1R,5S,6s)-6-[(1-Methyl-6-oxo-4-pyridin-4-yl-1,6-dihydropyrimidin-2-yl)amino]-3-azabicyclo[3.1.0] hexane-3-carboxylate] showed an IC50 of 2.2 nM. `Cn1c(NCC2OCCc3ccccc32)nc(-c2ccncc2)cc1=O` (stereo not shown) [Example 3, 2-[(3,4-dihydro-1H-Isochromen-1-ylmethyl)amino]-3-methyl-6-pyridin-4-ylpyrimidin-4(3H)-one] showed an IC50 of 23 nM. With `CCN(C[C@@H]1CCCN1C(=O)OC(C)(C)C)c1nc(-c2ccncc2)cc(=O)n1C` [Example 4, tert-butyl (2S)-2-{[Ethyl(1-methyl-6-oxo-4-pyridin-4-yl-1,6-dihydropyrimidin-2-yl)amino]methyl} pyrrolidine-1-carboxylate] the IC50 was 4.2 nM. `CCN(C[C@H]1CCCN1C(=O)OC(C)(C)C)c1nc(-c2ccncc2)cc(=O)n1C` [Example 5, tert-butyl (2R)-2-{[Ethyl(1-methyl-6-oxo-4-pyridin-4-yl-1,6-dihydropyrimidin-2-yl)amino]methyl} pyrrolidine-1-carboxylate] showed an IC50 of 2.1 nM. `Cn1c(N[C@H]2[C@@H]3CN(C(=O)OC(C)(C)C)C[C@@H]32)nc(-c2ccncc2)cc1=O` [Example 6, tert-butyl (1R,5S,6s)-6-[(1-Methyl-6-oxo-4-pyridin-4-yl-1,6-dihydropyrimidin-2-yl)amino]-3-azabicyclo[3.1.0] hexane-3-carboxylate] was tested, and the IC50 was 2.8 nM. For `CC1c2cccn2CCN1c1nc(-c2ccncc2)cc(=O)n1C` (stereo not shown) [Example 7, 3-Methyl-2-(1-methyl-3,4-dihydropyrrolo[1,2-a]pyrazin-2(1H)-yl)-6-pyridin-4-ylpyrimidin-4(3H)-one], the IC50 was 10.7 nM. `Cn1c(NC2CCCN(C(=O)OC(C)(C)C)CC2)nc(-c2ccncc2)cc1=O` (stereo not shown) [Example 8, tert-butyl 4-[(1-Methyl-6-oxo-4-pyridin-4-yl-1,6-dihydropyrimidin-2-yl)amino]azepane-1-carboxylate] showed an IC50 of 9.1 nM. For `Cn1c(N[C@H]2Cc3ccccc3NC2=O)nc(-c2ccncc2)cc1=O` [Example 9, (3S)-3-[(1-Methyl-6-oxo-4-pyridin-4-yl-1,6-dihydropyrimidin-2-yl)amino]-3,4-dihydroquinolin-2(1H)-one], the IC50 was 30 nM. In the case of `CN(c1nc(-c2ccncc2)cc(=O)n1C)C1CCCN(C(=O)OC(C)(C)C)CC1` (stereo not shown) [Example 10, tert-butyl 4-[Methyl(1-methyl-6-oxo-4-pyridin-4-yl-1,6-dihydropyrimidin-2-yl)amino]azepane-1-carboxylate], the IC50 is reported as 14.4 nM. In the case of `CN(c1nc(-c2ccncc2)cc(=O)n1C)C1CCN(C(=O)OC(C)(C)C)C1` (stereo not shown) [Example 11, tert-butyl 3-[Methyl(1-methyl-6-oxo-4-pyridin-4-yl-1,6-dihydropyrimidin-2-yl)amino]pyrrolidine-1-carboxylate], the IC50 is reported as 17.7 nM. For `Cn1c(N2[C@@H]3CC[C@H]2CN(C(=O)OC(C)(C)C)C3)nc(-c2ccncc2)cc1=O` [Example 12, tert-butyl (1R,5S)-8-(1-Methyl-6-oxo-4-pyridin-4-yl-1,6-dihydropyrimidin-2-yl)-3,8-diazabicyclo[3.2.1] octane-3-carboxylate], the IC50 was 32.4 nM. Work on `CCN(c1nc(-c2ccncc2)cc(=O)n1C)C1CCN(C(=O)OC(C)(C)C)C1` (stereo not shown) [Example 13, tert-butyl 3-[Ethyl(1-methyl-6-oxo-4-pyridin-4-yl-1,6-dihydropyrimidin-2-yl)amino]pyrrolidine-1-carboxylate] yielded an IC50 of 16.5 nM. With `Cn1c(NC[C@H]2CCN(C(=O)OC(C)(C)C)C2)nc(-c2ccncc2)cc1=O` [Example 14, tert-butyl (3R)-3-{[(1-Methyl-6-oxo-4-pyridin-4-yl-1,6-dihydropyrimidin-2-yl)amino]methyl} pyrrolidine-1-carboxylate] the IC50 was 74 nM. `CCN(c1nc(-c2ccncc2)cc(=O)n1C)C1CCCN(C(=O)OC(C)(C)C)CC1` (stereo not shown) [Example 15, tert-butyl 4-[Ethyl(1-methyl-6-oxo-4-pyridin-4-yl-1,6-dihydropyrimidin-2-yl)amino]azepane-1-carboxylate] showed an IC50 of 31 nM. For `Cn1c(N2[C@@H]3CC[C@H]2CC(n2cnc4ccccc42)C3)nc(-c2ccncc2)cc1=O` (stereo partly drawn) [Example 16, 2-[(1R,5S)-3-(1H-Benzimidazol-1-yl)-8-azabicyclo[3.2.1]oct-8-yl]-3-methyl-6-pyridin-4-ylpyrimidin-4(3H)-one], the IC50 was 20.5 nM. `Cn1c(N[C@H]2CN(C(=O)OC(C)(C)C)C[C@@H]2F)nc(-c2ccncc2)cc1=O` [Example 17, tert-butyl (3S,4S)-3-Fluoro-4-[(1-methyl-6-oxo-4-pyridin-4-yl-1,6-dihydropyrimidin-2-yl)amino]pyrrolidine-1-carboxylate] was tested, and the IC50 was 26.3 nM. With `Cn1c(NCC2CCCN2C(=O)OC(C)(C)C)nc(-c2ccncc2)cc1=O` (stereo not shown) [Example 18, tert-butyl 2-{[(1-Methyl-6-oxo-4-pyridin-4-yl-1,6-dihydropyrimidin-2-yl)amino]methyl} pyrrolidine-1-carboxylate] the IC50 was 108 nM. In the case of `Cn1c(NC2CCCN(C(=O)OC(C)(C)C)C2)nc(-c2ccncc2)cc1=O` (stereo not shown) [Example 19, tert-butyl 3-[(1-Methyl-6-oxo-4-pyridin-4-yl-1,6-dihydropyrimidin-2-yl)amino]piperidine-1-carboxylate], the IC50 is reported as 42 nM. `Cn1c(NC2CCCCN(C(=O)OC(C)(C)C)C2)nc(-c2ccncc2)cc1=O` (stereo not shown) [Example 20, tert-butyl 3-[(1-Methyl-6-oxo-4-pyridin-4-yl-1,6-dihydropyrimidin-2-yl)amino]azepane-1-carboxylate] showed an IC50 of 24.1 nM. `Cn1c(N[C@@H]2CC[C@@H](NC(=O)OC(C)(C)C)C2)nc(-c2ccncc2)cc1=O` [Example 21, tert-butyl {(1R,3R)-3-[(1-Methyl-6-oxo-4-pyridin-4-yl-1,6-dihydropyrimidin-2-yl)amino]cyclopentyl} carbamate] was tested, and the IC50 was 52.5 nM. `Cn1c(N2CCc3ccccc3C2Cc2ccccc2)nc(-c2ccncc2)cc1=O` (stereo not shown) [Example 22, 2-(1-Benzyl-3,4-dihydroisoquinolin-2(1H)-yl)-3-methyl-6-pyridin-4-ylpyrimidin-4(3H)-one] showed an IC50 of 37 nM. Work on `CN(c1nc(-c2ccncc2)cc(=O)n1C)[C@H]1CC[C@H]2NCC[C@@]2(C)C1` [Example 23, 3-methyl-2-{Methyl[(3aS,5S,7aR)-3a-methyloctahydro-1H-indol-5-yl]amino}-6-pyridin-4-ylpyrimidin-4(3H)-one] yielded an IC50 of 47 nM. `Cn1c(NC2CCN(C(=O)OC(C)(C)C)C2)nc(-c2ccncc2)cc1=O` (stereo not shown) [Example 24, tert-butyl 3-[(1-Methyl-6-oxo-4-pyridin-4-yl-1,6-dihydropyrimidin-2-yl)amino]pyrrolidine-1-carboxylate] showed an IC50 of 43 nM. Molecule `Cn1c(N2CCN(C(=O)OC(C)(C)C)[C@@H]3CCCC[C@H]32)nc(-c2ccncc2)cc1=O` [Example 25, tert-butyl (4aR,8aR)-4-(1-Methyl-6-oxo-4-pyridin-4-yl-1,6-dihydropyrimidin-2-yl)octahydroquinox-aline-1(2H)-carboxylate] has an IC50 of 40 nM. Molecule `Cn1c(N2CC[C@@H]3CN(C(=O)OC(C)(C)C)C[C@@H]32)nc(-c2ccncc2)cc1=O` [Example 26, tert-butyl (3aR,6aR)-1-(1-Methyl-6-oxo-4-pyridin-4-yl-1,6-dihydropyrimidin-2-yl)hexahydropyrrolo [3,4-b]pyrrole-5(1H)-carboxylate] has an IC50 of 97 nM. In the case of `Cn1c(NC2(c3cccc(C(C)(C)C)c3)CCOCC2)nc(-c2ccncc2)cc1=O` [Example 27, 2-{[4-(3-tert-Butylphenyl)tetra-hydro-2H-pyran-4-yl]amino}-3-methyl-6-pyridin-4-ylpyrimidin-4(3H)-one], the IC50 is reported as 12 nM. For `COc1cccc2c1CC[C@@H](Nc1nc(-c3ccncc3)cc(=O)n1C)[C@H]2C` [Example 28, 2-{[(1S,2R)-5-Methoxy-1-methyl-1,2,3,4-tetrahydronaphthalen-2-yl]amino}-3-methyl-6-pyridin-4-ylpyrimidin-4(3H)-one], the IC50 was 3.9 nM. For `Cn1c(NCCc2nc(-c3ccccc3)cs2)nc(-c2ccncc2)cc1=O` [Example 29, 3-Methyl-2-{[2-(4-phenyl-1,3-thiazol-2-yl)ethyl]amino}-6-pyridin-4-ylpyrimidin-4(3H)-one], the IC50 was 16 nM.
